Experiments:
[1] = system: stage 1 neural stem cells; assay: First 12-factor HD-DoE experiment, stage 2: additional 3 days after stage 1, gene expression modeled, with dynamic profile and factor criticality analysis; assay type: cell-based, human; details: for FOXA2 expression level in absence of the factor / LMX1A expression level in absence of the factor: stage 2 recipe, first experiment model; for FOXA2 expression level in absence of the factor: 10,000 with all factors; for LMX1A expression level in absence of the factor: 30,000 with all factors
Method: To develop the recipe for each stage, the impact of agonists and antagonists of multiple signaling pathways (referred to herein as “effectors”) on the expression of two sets of 53 pre-selected genes after a 3-day treatment was tested and modeled. These effectors are small molecules or proteins that are commonly used during stepwise differentiation of stem cells to specific fates. The choice of the effectors to test was based on current literature on neural induction in the midbrain region of the developing brain and differentiation of stem cells to neural progenitors. To test the effectors, experiments with at least 8 factors were designed that can assess the response of cells to 48 or more different combinations of effectors in a range of concentrations. To analyze the models, we focused on expression of genes expressed in the midbrain region, including OTX2, DMBX1, FOXA2, LMX1A, and on the absence of GB X2, which is a hindbrain marker. The impact of each effector on gene expression level is defined by a parameter called factor contribution that is calculated for each effector during the modeling. To further guide the differentiation of midbrain-committed neural stem cells to neural progenitor cells at stage 2, we performed an additional HD-DoE experiment. We thereby obtained additional gene regulatory models that were used for preparation of differentiation protocol. The basis of this was a 12-factor HD-DoE experiment with focus on initiation of differentiation of cells toward midbrain neural progenitor cells for an additional 3 days after termination of stage 1 treatment. Here, we focused on expression of LMX1A and FOXA2 in neural progenitor cells with low to zero expression of GBX2. LMX1A had significant high expression level in the model with value of 47888. Therefore, we used optimization setting for this gene to identify the positive factors. The factors in this experiment included SC79, MK2206, ZM336372, PD0325901, CHIR99021, A 83-01, TTNPB, AGN193109, GW3965, SR9243, Purmorphamine and GSI-XX. […] Therefore, we used dynamic profile analysis to adjust the recipe for optimized expression of both LMX1A and FOXA2 genes and minimum expression of GBX2 (FIG. 7). It was observed that even without addition of Purmorphamine, expression level of FOXA2 was at 5000, therefore inclusion of this effector is not essential, however it can improve expression of FOXA2. […] A 83-01 was another factor with opposite effect on FOXA2 and LMX1A that was included in the final recipe. […] To assess the impact of elimination of each validated factor, we used dynamic profile analysis and compared the expression level of genes of interest in absence of each finalized factor while others are present. […] In the stage 2 recipe, each of the six finalized factors were removed while the other five factors were present and the expression levels of FOXA2, LMX1A and GBX2 were assessed, compared to the levels in the presence of all factors. According to the first experiment model, the absence of TTNPB lead to a rise of GBX2 expression, while the value of FOXA2 and LMX1A reduced drastically from 10,000 to 0 and 30,000 to 15,000, respectively. The absence of A 83-01 reduced the expression of FOXA2 from 10,000 to 7000, however, as expected, the value of LMX1A increased from 30,000 to 40,000. […] According to the second experiment model, the absence of BMP7 and MK2206 both reduced the level of FOXA2 while increasing the value of LMX1A, with BMP7 as the main effector that led to 0 expression of FOXA2.

[2] = system: stage 1 neural stem cells; assay: Second 12-factor HD-DoE experiment, stage 2: hiPSCs in stage 1 media 3 days, then 96 factor combinations for 3 days, with dynamic profile and factor criticality analysis; assay type: cell-based, human; details: for FOXA2 expression level in absence of the factor / LMX1A expression level in absence of the factor: stage 2 recipe, second experiment model; for LMX1A expression level in absence of the factor: 4000 with all factors; for impact on expression of GBX2: stage 2, second 12-factor experiment, dynamic profile; for factor contribution: negative impact
Method: To test additional factors like FGF8 that is routinely used in midbrain differentiation protocols, we ran another 12-factor experiment consisting of LDN193189, BMP7, A 83-01, Activin A, Takinib, PD0325901, MK2206, FGF8b, AZD3147, MHY1485, GSI-XX and Yhhu 3792. Similar to the previous experiment, hiPSCs were treated with stage 1 media for 3 days and then treated with 96 conditions of combinations of the factors for an additional 3 days. When this model was optimized for maximum expression of FOXA2, BMP7 with factor contribution of 13.7 and MK2206 with 14.2 had the most impact on its expression followed by AZD 3147 with factor contribution of 10.9. […] Another difference was BMP7, which has a negative impact on LMX1A. However, the factor contribution is less than 10. Therefore, to evaluate the effect of interactions between the factors and the optimal condition for the expression of both FOXA2 and LMX1A, we used dynamic profile analysis (FIG. 10). […] To assess the impact of elimination of each validated factor, we used dynamic profile analysis and compared the expression level of genes of interest in absence of each finalized factor while others are present. […] In the stage 2 recipe, each of the six finalized factors were removed while the other five factors were present and the expression levels of FOXA2, LMX1A and GBX2 were assessed, compared to the levels in the presence of all factors. According to the first experiment model, the absence of TTNPB lead to a rise of GBX2 expression, while the value of FOXA2 and LMX1A reduced drastically from 10,000 to 0 and 30,000 to 15,000, respectively. The absence of A 83-01 reduced the expression of FOXA2 from 10,000 to 7000, however, as expected, the value of LMX1A increased from 30,000 to 40,000. […] According to the second experiment model, the absence of BMP7 and MK2206 both reduced the level of FOXA2 while increasing the value of LMX1A, with BMP7 as the main effector that led to 0 expression of FOXA2.

[3] = system: human pluripotent stem cells; assay: 13-factor HD-DoE experiment, stage 1: 3-day effector treatment, gene expression modeled, with dynamic profile and factor criticality analysis; assay type: cell-based; details: for LMX1A expression level in absence of the factor / FOXA2 expression level in absence of the factor / DMBX1 expression level in absence of the factor / OTX2 expression level in absence of the factor: stage 1 recipe, other four factors present; for LMX1A expression level in absence of the factor: 300 with all five factors; for FOXA2 expression level in absence of the factor: 600 with all five factors; for DMBX1 expression level in absence of the factor: 3000 with all five factors; for OTX2 expression level in absence of the factor: 12000 with all five factors
Source text: This example utilizes a method of High-Dimensional Design of Experiments (HD-DoE), as previously described in Bukys et al. (2020) Iscience 23:101346. The method employs computerized design geometries to simultaneously test multiple process inputs and offers mathematical modeling of a deep effector/response space. The method allows for finding combinatorial signaling inputs that control a complex process, such as during cell differentiation.
It allows testing of multiple plausible critical process parameters, as such parameters impact output responses, such as gene expression. Because gene expression provides hallmark features of the phenotype of, for example, a human cell, the method can be applied to identify, and understand, which signaling pathways control cell fate. In the current example, the HD-DOE method was applied with the intent to find conditions for induction of midbrain neural progenitor-expressed genes, directly from the pluripotent stem cell state.
To develop the recipe for each stage, the impact of agonists and antagonists of multiple signaling pathways (referred to herein as “effectors”) on the expression of two sets of 53 pre-selected genes after a 3-day treatment was tested and modeled. These effectors are small molecules or proteins that are commonly used during stepwise differentiation of stem cells to specific fates. The choice of the effectors to test was based on current literature on neural induction in the midbrain region of the developing brain and differentiation of stem cells to neural progenitors.
To test the effectors, experiments with at least 8 factors were designed that can assess the response of cells to 48 or more different combinations of effectors in a range of concentrations. To analyze the models, we focused on expression of genes expressed in the midbrain region, including OTX2, DMBX1, FOXA2, LMX1A, and on the absence of GB X2, which is a hindbrain marker. The impact of each effector on gene expression level is defined by a parameter called factor contribution that is calculated for each effector during the modeling.
To identify the recipe of stage 1 of differentiation, cells were treated with various effectors for 3 days and the gene expression of cells was modeled. […] This model consisted of 13 factors including LDN193189, PD173074, BLU9931, Purmorphamine, SC79, MK2206, ZM336372, PD0325901, CHIR99021, XAV939, UCLA-gp130, Tofacitinib and GO 6983.
LDN193189 and CHIR99021 are common in both optimization settings and the rest of the factors except Purmorphamine, have a factor contribution less than 10. Therefore, we focused on impact of addition of Purmorphamine to the original 4 effectors.
This assessment was done through dynamic profile analysis of the model with focus on expression of OTX2, DMBX1, LMX1A and FOXA2 (FIG. 3).
To assess the impact of elimination of each validated factor, we used dynamic profile analysis and compared the expression level of genes of interest in absence of each finalized factor while others are present.
In the stage 1 recipe, each of the five finalized factors were removed while the other four factors were present and the expression levels of OTX2, DMBX1, FOXA2 and LMX1A was assessed compared to the levels in the presence of all five factors (FIGS. 11A-B). […] Expression level of DMBX1 increased in absence of LDN193189, however values of OTX2, FOXA2 and LMX1A decreased.

[4] = stage 2, first 12-factor experiment, dynamic profile
[5] = dynamic profile, Purmorphamine added to the original 4 effectors

Cc1cccc(-c2nn(C(=S)Nc3ccccc3)cc2-c2ccnc3ccccc23)n1 [A 83-01]
FOXA2 expression level in absence of the factor [1]: 7000
LMX1A expression level in absence of the factor [1]: 40,000

C[C@H]1COCCN1c1cc(C2(S(=O)(=O)C3CC3)CC2)nc(-c2ccc(NC(=S)NCCO)cc2)n1 [AZD 3147]
FOXA2 expression level in absence of the factor [2]: almost no effect
LMX1A expression level in absence of the factor [2]: 2000

Cc1c[nH]c(-c2cnc(NCCNc3ccc(C#N)cn3)nc2-c2ccc(Cl)cc2Cl)n1 [CHIR99021]
LMX1A expression level in absence of the factor [3]: reduced
FOXA2 expression level in absence of the factor [3]: reduced
DMBX1 expression level in absence of the factor [3]: reduced
OTX2 expression level in absence of the factor [3]: reduced
impact on expression of GBX2 [1, 4]: increases
impact on expression of LMX1A [1, 4]: positive impacts

O=C(O)Cc1cccc(OCCCN(Cc2cccc(C(F)(F)F)c2Cl)CC(c2ccccc2)c2ccccc2)c1 [GW3965]
FOXA2 expression level in absence of the factor [1]: 17,000
LMX1A expression level in absence of the factor [1]: 10,000

c1ccc2c(-c3cnn4cc(-c5ccc(N6CCNCC6)cc5)cnc34)ccnc2c1 [LDN193189]
LMX1A expression level in absence of the factor [3]: decreased
FOXA2 expression level in absence of the factor [3]: decreased
DMBX1 expression level in absence of the factor [3]: increased
OTX2 expression level in absence of the factor [3]: decreased

NC1(c2ccc(-c3nc4ccn5c(=O)[nH]nc5c4cc3-c3ccccc3)cc2)CCC1 [MK2206]
LMX1A expression level in absence of the factor [3]: stayed the same
FOXA2 expression level in absence of the factor [3]: stayed the same
DMBX1 expression level in absence of the factor [3]: 1500
OTX2 expression level in absence of the factor [3]: 9500
impact on expression of GBX2 [2]: desirable impact
FOXA2 expression level in absence of the factor [2]: reduced
LMX1A expression level in absence of the factor [2]: increasing

O=C(NOC[C@H](O)CO)c1ccc(F)c(F)c1Nc1ccc(I)cc1F [PD0325901]
LMX1A expression level in absence of the factor [3]: 500
FOXA2 expression level in absence of the factor [3]: 700
DMBX1 expression level in absence of the factor [3]: 900

c1ccc2c(Oc3nc(Nc4ccc(N5CCOCC5)cc4)c4ncn(C5CCCCC5)c4n3)cccc2c1 [Purmorphamine]
DMBX1 expression level [3, 5]: ~3000
LMX1A expression level [3, 5]: ~450
OTX2 expression level [3, 5]: ~11000
LMX1A expression level in absence of the factor [3]: beneficial
FOXA2 expression level in absence of the factor [3]: reduction
DMBX1 expression level in absence of the factor [3]: beneficial
OTX2 expression level in absence of the factor [3]: beneficial
expression level of FOXA2 without addition of the effector ([1]; dynamic profile analysis, stage 2): 5000

C/C(=C\c1ccc(C(=O)O)cc1)c1ccc2c(c1)C(C)(C)CCC2(C)C [TTNPB]
FOXA2 expression level in absence of the factor [1]: 0
LMX1A expression level in absence of the factor [1]: 15,000

COc1cccc(Oc2cccc3nc(Nc4ccc(C(C)C)cc4)nc(N)c23)c1 [Yhhu 3792]
impact on expression of GBX2 [2]: positive effect

FGF8b
factor contribution ([2]; model optimized for maximum expression of FOXA2): 12.8
factor contribution ([2]; model optimized for maximum expression of LMX1A): 16.9

B1: BMP7 (protein, UniProt P18075 293-431, looked up)
Bone morphogenetic protein 7: STGSKQRSQNRSKTPKNQEALRMANVAENSSSDQRQACKKHELYVSFRDLGWQDWIIAPEGYAAYYCEGECAFPLNSYMNATNHAIVQTLVHFINPETVPKPCCAPTQLNAISVLYFDDSSNVILKKYRNMVVRACGCH
notes: BMP pathway agonist
FOXA2 expression level in absence of the factor [2]: 0
LMX1A expression level in absence of the factor [2]: increasing
